Results taken from US10590115B2, “Tetrahydroquinazoline derivatives useful as anticancer agents” (PFIZER INC., priority 2018, dated 2020).

Assays:
[1] = target: T1, KRAS G12C in MiaPaCa2 cells (Homo sapiens, UniProt P01116, G12C); experiment: MiaPaCa2 Cell Activity Assay (Raf-1 RBD capture of active Ras, MSD); type: cell-based; details: MIAPaCa-2 cells, 6 hours treatment; assay limit is 30.0 μM
T1 construct: endogenous in cells; host or cells: MiaPaCa2
Method: MiaPaCa2 Cell Activity Assay
Compounds presented in the present invention lead to the accumulation of the GDP bound Ras upon treatment of human cancer cell line.
The accumulation of the GDP-bound KRAS G12C in cellular environment was measured based on the principle that KRAS G12C only binds to its downstream kinase; Raf-1 (MAP Kinase Kinase Kinase), when in its active-GTP bound state. In this state, Ras binded to a domain of Raf-1 kinase referred to as the Ras Binding Domain (RBD).
MiaPaCa2 cells were grown in DMEM medium (Gibco 11995) supplemented with 10% fetal bovine serum and 1% penicillin/streptomycin. Cells were seeded in 96-well tissue culture plates at a density of 40,000 cells/well and allowed to attach for 16-24 hours. Test compounds were prepared as a 10 mM stock in DMSO and serially diluted in 100% DMSO using a 3-fold dilution scheme. An intermediate 5× concentrated plate in complete growth medium was made and 25 μl/well was added to the 100 μl of cells for a final concentration of 0.1% DMSO. Each concentration of exemplary compound was tested in duplicate. The negative control wells were cells with control inhibitor at 10 μM, and the positive control wells were cells without drugs, DMSO only. Plates were incubated for 6 hours at 37° C., 5% CO2. Following treatment, cells were washed 3× with ice-cold PBS and 100 μl/well ice-cold 1× Assay/Lysis. Buffer with protease inhibitors was added (25 mM HEPES, pH 7.5, 150 mM NaCl, 1% NP-40, 10 mM MgCl2, 1 mM EDTA, 2% Glycerol). Following lysis samples were frozen at −80° C.
Raf-1 RBD (LJIC-1988A1) was diluted to 100 ng/well in PBS and 5 μl/well was spot coated onto MSD high bind SECTOR plates (L15XB). Plates were incubated at room temperature for 1 hour on an orbital shaker. Plates were washed with PBS/0.05% Tween-20 and 50 μl/well of thawed lysate samples were added, followed by 50 μl of 1% MSD Blocker A in PBS/0.05% Tween-20 (R93BA). Plates were incubated for 1 hour on an orbital shaker and washed with PBS/0.05% Tween-20. 25 μl/well of Anti-pan-Ras Antibody (Cell Biolabs 244003) diluted 1:3000 was added in 1% MSD Blocker A solution and plates were incubated for 1 hour on an orbital shaker and washed with PBS/0.05% Tween-20. SULFO-TAG goat anti-mouse secondary antibody (MSD R32AC) was diluted 1:500 in MSD Blocker A solution and added at 25 μL/well. Plates were incubated for 1 hour on an orbital shaker and washed with PBS/0.05% Tween-20. 150 μl/well of Read Buffer T (MSD R92TC) diluted 1:3 in H2O was added and plates were read on a Meso Scale Discovery Sector Imager S600.
KRAS signal was normalized to maximum inhibition and DMSO control values, and IC50 values were generated using a 4 parameter fit of the dose response curve. The decrease in IC50 reflects that the exemplary compound lead to a higher level of accumulation of GDP-bound KRAS G12C than another exemplary compounds at specific timepoint of treatment of cancer cell line.

[2] = target: T2, GDP-loaded kRas (1-169) G12C, C51S, C80L, C118S (Homo sapiens, UniProt P01116, C118S/C51S/C80L/G12C); experiment: Mass Spectrometry Reactivity Assay (MSRA), covalent adduct with kRas G12C; type: binding; details: 0.5 h at room temperature; 5 μM KRas protein; typical final concentration of the compounds 10 μM
T2 construct: GDP-loaded kRas (1-169) G12C, C51S, C80L, C118S
Method: Mass Spectrometry Reactivity Assay (MSRA)
Compounds presented in the present invention covalently bind to kRas G12C using MSRA to detect a covalent adduct of the exemplary compound and kRas G12C. GDP-loaded kRas (1-169) G12C, C51S, C80L, C118S were diluted in the protein assay buffer 25 mM Hepes pH7.5, 200 mM NaCl, 5% glycerol to concentration of 5 μM and 20 μl of protein was transferred into 96-well plate. […] See K-Ras(G12C) inhibitors allosterically control GTP affinity and effector interactions; Ostrem J M, Peters U, Sos M L, Wells J A, Shokat K M; Nature. 2013, Nov. 28; 503(7477):548-51.
Exemplary compounds dissolved in DMSO were diluted 100-fold into solution containing 20 μl of 5 μM KRas protein in the 96-well plate to initiate the reaction. Mosquito (TPP Lab tech) liquid handling robot was used to add compounds to protein solution. Typical final concentration of the compounds was 10 μM. The plates were placed on a shaker for 1 min at RT, sealed and incubated at room temperature for specified time period. 5 μl of reaction mix was added to 10 μl of 0.2% formic acid stop solution and mixed well. Typical end points were 30, 120, 600 and 1440 min.
Data were collected using Waters Acquity H-class UPLC system/Xevo G2-XS TOF mass spectrometer. The protein was injected in their liquid phase onto a Bruker Microtrap protein column TR1/15109/03. The following buffers were used to set LC gradient: Buffer A: 0.2% formic acid H20; B: 0.2% formic acid CAN. The protein was eluted from the column using the following LC Gradient: 0-0.4 min, 10% B to 30% B; 0.4 min-2.4 min, to 90% B, 2.5 min, 10% B, 3 min, 10% B. Initial data analysis was performed using MaxEnt software right after data acquisition.
The standard auto processing function was used to define percentage of unmodified and modified kRas protein using MexEnt software right after data acquisition. The highest peak was defined as 100% while smaller peak as assigned the number defined by autoprocessing function. The percent of modification corresponding to modified with exemplary compound and unmodified KRas GDP-loaded kRas (1-169) G12C, C51S, C80L, C118S were exported to Xcel data analysis software.
The percent of modified protein at the defined concentration of exemplary compound was calculated using the following formula: % mod=Num of modified peak/Sum of modified+unmodified.

IC50 [1] [µM] | % Modification (0.5 h) [2] [%] | SMILES
0.113 | 79 | C=CC(=O)N1CCN(c2nc(N3CC(N(C)C)C3)nc3c2C[C@@H](C)[C@H](c2c(C)c(Cl)cc4[nH]ncc24)C3)C[C@H]1C [Example F13, 1-[(2R)-4-{(6R,7R)-7-(6-chloro-5-methyl-1H-indazol-4-yl)-2-[3-(dimethylamino)azetidin-1-yl]-6-methyl-5,6,7,8-tetrahydroquinazolin-4-yl}-2-methylpiperazin-1-yl]prop-2-en-1-one]
1 | 32 | C=CC(=O)N1CCN(c2nc(N3CC(CN(C)C)C3)nc3c2C[C@@H](C)[C@H](c2c(C)ccc4[nH]ncc24)C3)CC1 (relative stereo) [Example F9]
 | 12 | C=CC(=O)N1CCN(c2ncnc3c2C[C@@H](C)[C@H](c2c(CO)ccc4[nH]ncc24)C3)CC1 [Example D1, 1-(4-{(6R,7R)-7-[5-(hydroxymethyl)-1H-indazol-4-yl]-6-methyl-5,6,7,8-tetrahydroquinazolin-4-yl}piperazin-1-yl)prop-2-en-1-one]
1.11 | 73 | C=CC(=O)N1CCN(c2ncnc3c2CC[C@H](c2cc(O)cc4ccccc24)C3)CC1 (single isomer, unassigned) [Example G3]
 | 0 | C=CC(=O)N1CCN(c2ncnc3c2CC[C@@H](c2cc(O)cc4ccccc24)C3)CC1 (single isomer, unassigned) [Example G2]
 | 8 | C=CC(=O)N1CCN(c2nc(N3CC(N(C)C)C3)nc3c2C[C@H](C)[C@@H](c2c(Cl)ccc4[nH]ncc24)C3)CC1 (single isomer, unassigned) [Example F11]
22.9 | 12 | C=CC(=O)N1CCN(c2nc(N3CC(N(C)C)C3)nc3c2C[C@H](C)[C@@H](c2c(Cl)c(C)cc4[nH]ncc24)C3)CC1 [Example F8, 1-(4-{(6S,7S)-7-(5-chloro-6-methyl-1H-indazol-4-yl)-2-[3-(dimethylamino)azetidin-1-yl]-6-methyl-5,6,7,8-tetrahydroquinazolin-4-yl}piperazin-1-yl)prop-2-en-1-one]
 | 0 | C=CC(=O)N1CCN(c2nc(N3CC(N(C)C)C3)nc3c2C[C@H](C)[C@@H](c2c(C)ccc4[nH]ncc24)C3)CC1 (single isomer, unassigned) [Example F3]
0.178 |  | C=CC(=O)N1CCN(c2nc(N3CC(NC)C3)nc3c2C[C@@H](C)[C@H](c2c(C)c(Cl)cc4[nH]ncc24)C3)CC1 [Example H1, 1-(4-{(6R,7R)-7-(6-chloro-5-methyl-1H-indazol-4-yl)-6-methyl-2-[3-(methylamino)azetidin-1-yl]-5,6,7,8-tetrahydroquinazolin-4-yl}piperazin-1-yl)prop-2-en-1-one]
 | 40 | C=CC(=O)N1CCN(c2ncnc3c2C[C@@H](C)[C@H](c2c(C)cc(O)c4[nH]ncc24)C3)CC1 [Example E1, 1-{4-[(6R,7R)-7-(7-hydroxy-5-methyl-1H-indazol-4-yl)-6-methyl-5,6,7,8-tetrahydroquinazolin-4-yl]piperazin-1-yl}prop-2-en-1-one]
 | 16 | C=CC(=O)N1CCN(c2ncnc3c2CCC(c2c(C(F)(F)F)ccc4[nH]ncc24)C3)CC1 (stereo not drawn) [Example G1, 1-(4-(7-(5-(trifluoromethyl)-1H-indazol-4-yl)-5,6,7,8-tetrahydroquinazolin-4-yl)piperazin-1-yl)prop-2-en-1-one]

The next lines start with the compound.

SMILES | IC50 [1] [µM] | % Modification (0.5 h) [2] [%]
C=CC(=O)N1CCN(c2ncnc3c2CC[C@@H](c2c(C)ccc4[nH]ncc24)C3)CC1 (single isomer, unassigned) [Example A2] |  | 0
C=CC(=O)N1CCN(c2ncnc3c2C[C@@H](C)[C@H](c2c(C)c(Cl)cc4[nH]ncc24)C3)CC1 (relative stereo) [Example A9, 1-{4-[(6R,7R)-rel-7-(6-chloro-5-methyl-1H-indazol-4-yl)-6-methyl-5,6,7,8-tetrahydroquinazolin-4-yl]piperazin-1-yl}prop-2-en-1-one] | 0.155 | 77
C=CC(=O)N1CCN(c2ncnc3c2C[C@@H](C)[C@H](c2c(Cl)c(C)cc4[nH]ncc24)C3)CC1 (relative stereo) [Example A8, 1-{4-[(6R,7R)-rel-7-(5-chloro-6-methyl-1H-indazol-4-yl)-6-methyl-5,6,7,8-tetrahydroquinazolin-4-yl]piperazin-1-yl}prop-2-en-1-one] | 0.462 | 54
C=CC(=O)N1CCN(c2ncnc3c2CCC(c2c(C)ccc4[nH]ncc24)C3)CC1 (stereo not drawn) [Example A1, 1-{4-[7-(5-methyl-1H-indazol-4-yl)-5,6,7,8-tetrahydroquinazolin-4-yl]piperazin-1-yl}prop-2-en-1-one] | 7.86 | 14
C=CC(=O)N1CCN(c2ncnc3c2CCC(c2c(C)ccc4[nH]ncc24)C3)CC1C (stereo not drawn) [Example B3, 1-{2-methyl-4-[7-(5-methyl-1H-indazol-4-yl)-5,6,7,8-tetrahydroquinazolin-4-yl]piperazin-1-yl}prop-2-en-1-one] | 28.4 | 7
C=CC(=O)N1CCN(c2ncnc3c2CCC(c2c(C)ccc4[nH]ncc24)C3)[C@@H](C)C1 (stereo partly drawn) [Example B2, 1-{(3S)-3-methyl-4-[7-(5-methyl-1H-indazol-4-yl)-5,6,7,8-tetrahydroquinazolin-4-yl]piperazin-1-yl}prop-2-en-1-one] |  | 13
C=CC(=O)N1CCN(c2ncnc3c2C[C@H](C)[C@@H](c2c(C)ccc4[nH]ncc24)C3)CC1 [Example A6, 1-{4-[(6S,7S)-6-methyl-7-(5-methyl-1H-indazol-4-yl)-5,6,7,8-tetrahydroquinazolin-4-yl]piperazin-1-yl}prop-2-en-1-one] |  | 3
C=CC(=O)N1CCN(c2nc(OCCCOC)nc3c2CCC(c2c(C)ccc4[nH]ncc24)C3)CC1 (stereo not drawn) [Example C2, 1-{4-[2-(3-methoxypropoxy)-7-(5-methyl-1H-indazol-4-yl)-5,6,7,8-tetrahydroquinazolin-4-yl]piperazin-1-yl}prop-2-en-1-one] |  | 22
